According to US8883698B2, “Compositions comprising a near terminal-branched compound and methods of making the same” (The Procter & Gamble Co, priority 2010, dated 2014):

Experiment: Dynamic Interfacial Tension analysis (Kruss DVT30 Drop Volume Tensiometer), ascending canola oil drop in aqueous surfactant phase
Assay type: physicochemical
Settings: 6 gpg water hardness; 15° C.
Method: The Dynamic Interfacial Tension analysis was performed on a Kruss® DVT30 Drop Volume Tensiometer. The instrument is configured to measure the interfacial tension of an ascending oil drop in aqueous detergent (surfactant) phase. The oil was canola oil. The aqueous detergent and oil phases are temperature controlled via a Polyscience® circulating water temperature controller attached to tensiometer. A dynamic interfacial tension curve is generated by dispensing the oil drops into the aqueous detergent phase from an ascending capillary with diameter of 0.2540 mm over a range of flow rates and measuring the interfacial tension at each flow rate. Data is generated at oil dispensing flow rates of 500 uL/min-1 uL/min with 2 flow rates per decade on a logarithmic scale (7 flow rates measured). Interfacial tension is measured on three oil drops per flow rate, then averaged. Interfacial tension is reported in units of mN/m. Surface age of the oil drops at each flow rate is also recorded and plots can be generated either of interfacial tension (y-axis) versus oil flow rate (x-axis) or interfacial tension (y-axis) versus oil drop surface age (x-axis).

precipitation observed during interfacial tension measurement: NM (precipitated)
Substance: 13-Methyltetradecylsulfate
